Data: patent US20090117192A1, “COMPOSITION FOR TRANSDERMAL ABSORPTION AND FORMULATION COMPRISING A POLYMERIC MATRIX FORMED THEREFROM” (priority 2007, published 2009)
Where two headings read alike, the source gives them in different places.

Experiment: Meloxicam solubility enhancement test of sodium methoxide (saturation, HPLC)
Method: Meloxicam was mixed with an equivalent amount of sodium methoxide, and the mixture was dissolved to the saturation point in distilled water, methanol, ethylacetate, tetrahydrofuran or N-methylpyrrolidone. The resulting solution was subjected to high performance liquid chromatography to measure the meloxicam solubility.
Only Meloxicam without using sodium methoxide was dissolved to the saturation point in distilled water, methanol, ethylacetate, tetrahydrofuran or N-methylpyrrolidone, and then the resulting solution was subjected to high performance liquid chromatography to measure the meloxica solubility.

| Compound | Meloxicam solubility [µg/mL] | Meloxicam solubility (saturation, HPLC) [µg/mL] |
| --- | --- | --- |
| Cc1cnc(NC(=O)C2=C(O)c3ccccc3S(=O)(=O)N2C)s1 [Comparative Example 2, Meloxicam] | 430 | – |
| Cc1cnc(NC(=O)C2=C(O)c3ccccc3S(=O)(=O)N2C)s1 [Comparative Example 5, Meloxicam] | 92700 | – |
| Cc1cnc(NC(=O)C2=C(O)c3ccccc3S(=O)(=O)N2C)s1 [Comparative Example 4, Meloxicam] | 21910 | – |
| Cc1cnc(NC(=O)C2=C(O)c3ccccc3S(=O)(=O)N2C)s1 [Comparative Example 3, Meloxicam] | – | 1280 |
| Cc1cnc(NC(=O)C2=C(O)c3ccccc3S(=O)(=O)N2C)s1 [Comparative Example 1, Meloxicam] | 60 | – |
